Molecules are shown by their SMILES. “And” between values parts separate entries of the source, which are not always exact repeats. Equal values may be shown once.

Series [1] concerns Rattus norvegicus. The conditions noted are these: short-term.
Series [2] relates to Rattus norvegicus.
Series [3] deals with Rattus norvegicus. As to conditions: oral, gavage, M, Sprague-Dawley.
The subject of series [4] is Rattus norvegicus. As to conditions: subchronic, duration: 13 weeks, dermal, non-occlusive, Sprague-Dawley.
Setting [5] is: duration: 28 days, oral, gavage, F, Crl:CD(SD), Kidney: Kidney, Right, Pelvis, Dilation + Liver: Liver Weight, Relative + Liver: Liver, Large.
Setting [6] is: duration: 28 days, oral, gavage, F, Crl:CD(SD), Whole Body: Clinical Observations.
The mark [7] stands for this setting: duration: 28 days, oral, gavage, M, Crl:CD(SD), Liver: Hepatocellular Hypertrophy + Liver: Liver Weight, Relative + Liver: Liver, Large.
Where [8] appears, read: Hershberger, duration: 10 days, oral, gavage, Sprague-Dawley, active + Negative + Antiandrogenic + anti-androgenic + negative.
[9] abbreviates: uterotrophic, duration: 3 days, injection, subcutaneous, Active.
The mark [10] stands for this setting: uterotrophic, duration: 36 days, injection, subcutaneous, Active.
[11] abbreviates: duration: 3 days, injection, subcutaneous, F, Crj:CD, uterus: uterine dry weight (absolute) + uterus: uterine dry weight (relative) + uterus: uterine wet weight (absolute) + uterus: uterine wet ….
[12] abbreviates: duration: 28 days, oral, gavage, F, Crl:CD(SD), A/G ratio + phospholipid + triglyceride.
[13] abbreviates: duration: 28 days, oral, gavage, F, Crl:CD(SD), cholinesterase + inorganic phosphorus + kidney: abnormal kidney histopathological changes.
[14] abbreviates: duration: 28 days, oral, gavage, F, Crl:CD(SD), uterus: uterine dry weight (absolute) + uterus: uterine dry weight (relative) + uterus: uterine wet weight (absolute) + uterus: uterine wet ….
The mark [15] stands for this setting: duration: 28 days, oral, gavage, M, Crl:CD(SD), alanine aminotransferase + body weight + brain: brain weight + gamma-glutamyl transpeptidase + heart: heart weight + hematocrit + kidney: ….
Where [16] appears, read: duration: 28 days, oral, gavage, M, Crl:CD(SD), heart: heart weight.

`CCC(F)(F)C(F)(F)C(F)(F)C(F)(F)C(F)(F)C(F)(F)F` [1-(Perfluorohexyl)ethane]: the NOAEL – broadly, the highest dose or exposure tested at which no adverse effect was seen – in the series with Rattus norvegicus [1] (duration: 28 days, oral, gavage, F, Crl:CD(SD), Adrenal: Adrenal Gland Histopathology + Adrenal: Adrenal Gland Weight, Absolute + Adrenal: Adrenal Gland Weight, Relative + Bladder: Urinary…) is 200 mg/kg-day; in the series with Rattus norvegicus [1] (setting [5]) it was 40 mg/kg-day; in the series with Rattus norvegicus [1] (setting [6]), 8 mg/kg-day; in the series with Rattus norvegicus [1] (duration: 28 days, oral, gavage, M, Crl:CD(SD), Adrenal: Adrenal Gland Histopathology + Adrenal: Adrenal Gland Weight, Absolute + Adrenal: Adrenal Gland Weight, Relative + Blood: Activated…), 200 mg/kg-day; in the series with Rattus norvegicus [1] (setting [7]), 40 mg/kg-day. The results for the LOAEL in the series on Rattus norvegicus [1] (setting [5]), with Rattus norvegicus [1] (setting [6]) and with Rattus norvegicus [1] (setting [7]) were 200 mg/kg-day, 40 mg/kg-day and 200 mg/kg-day, respectively.
As for `N#Cc1c(Cl)cccc1Cl` [2,6-Dichlorobenzonitrile], in the series with Rattus norvegicus [2] (setting [8]), the LOEL was 150 mg/kg-day and the NOEL came out at 60 mg/kg-day.
Consider `C[C@]12CCC(=O)C=C1CC[C@@H]1[C@@H]2CC[C@]2(C)C(=O)CC[C@@H]12` [4-Androstene-3,17-dione], for which the LEL turned out to be 5 mg/day in the series on Rattus norvegicus [2] (setting [9]); 5 mg/kg-day with Rattus norvegicus [2] (uterotrophic, duration: 7 days, injection, subcutaneous, Active); 2 mg/day in the series with Rattus norvegicus [2] (uterotrophic, duration: 14 days, injection, subcutaneous, Active); 1 mg/kg-day in the series with Rattus norvegicus [2] (setting [10]).
As to `CCCCCCCCCCCCc1ccc(O)cc1` [4-Dodecylphenol], in the series on Rattus norvegicus [2] (setting [9]), the LEL is 40 mg/kg-day and 39.7 mg/kg-day.
`Cc1c(O)ccc2c1CC[C@@H]1[C@@H]2CC[C@]2(C)[C@@H](O)CC[C@@H]12` [4-Methylestradiol] had an LEL with Rattus norvegicus [2] (setting [9]) of 0.005 mg/day.
In the series on Rattus norvegicus [2] (uterotrophic, duration: 3 days, oral, Active), `C#C[C@@]1(OC(=O)CC)C[C@@H]2CC[C@@H]3[C@H](CC[C@@]4(C)[C@H]3CC[C@]4(C#C)OC(=O)CC)[C@@]2(C)C1` [Anordrin] had an LEL of 0.0025 mg/day.
Turning to `Oc1ccc(C2(c3ccc(O)cc3)CCCCC2)cc1` [Bisphenol Z], the NOEL worked out at 20 mg/kg-day with Rattus norvegicus [3] (subchronic, Clinical Observation: Diarrhea Soft feces + Body Weight Changes: decrease, R + Food Consumption: decrease + Urinalysis: Urine volume …); 6 mg/kg-day in the series with Rattus norvegicus [1] (setting [11]); 30 mg/kg-day in the series on Rattus norvegicus [1] (setting [12]); 100 mg/kg-day with Rattus norvegicus [1] (setting [13]); 6 mg/kg-day in the series on Rattus norvegicus [1] (setting [14]); 100 mg/kg-day in the series with Rattus norvegicus [1] (setting [15]). This molecule also registered an NOEL with Rattus norvegicus [1] (setting [16]) of 30 mg/kg-day. Also, the LOEL with Rattus norvegicus [1] (setting [11]) was 30 mg/kg-day; in the series with Rattus norvegicus [1] (setting [12]), 100 mg/kg-day; with Rattus norvegicus [1] (setting [13]), 300 mg/kg-day; in the series on Rattus norvegicus [1] (setting [14]), 30 mg/kg-day; in the series on Rattus norvegicus [1] (setting [15]) it was 300 mg/kg-day; in the series with Rattus norvegicus [1] (setting [16]) it was 100 mg/kg-day. Besides, the LOEL in the series with Rattus norvegicus [1] (duration: 28 days, oral, gavage, M, Crl:CD(SD), thymus: serum T4) came out at 30 mg/kg-day.
For `CCCCCCCCCCCCCCCCCC(=O)[O-].CCCCCCCCCCCCCCCCCC(=O)[O-].[Ca+2]` [Calcium stearate], the NOAEL came out at 2000 mg/kg-day in the series on Rattus norvegicus [3] (short-term, duration: 28 days, Urinalysis: Bilirubin increase + Absolute Organ Weight: Spleen increase); 2000 mg/kg-day in the series on Rattus norvegicus [4] (F); 2000 mg/kg-day with Rattus norvegicus [4] (M).
With `C[C@]12CC[C@H](O)CC1=CC[C@@H]1[C@@H]2CC[C@]2(C)C(=O)CC[C@@H]12` [Dehydroepiandrosterone], the LEL turned out to be 6 mg in the series on Rattus norvegicus [2] (setting [9]); 1 mg/day in the series with Rattus norvegicus [2] (uterotrophic, duration: 21 days, Active); 2000 mg/kg-day in the series on Rattus norvegicus [2] (uterotrophic, duration: 28 days, oral, diet, Active); 30 mg/kg-day with Rattus norvegicus [2] (setting [10]). For the same molecule, the “LEL (mg/100 g BW)” value in the series with Rattus norvegicus [2] (setting [9]) came out at 0.6.

These data come from EPA's ToxValDB 9.5.
